Here are results for two molecules from US8785455B2, “Polymorph of linagliptin benzoate” (Sandoz AG, priority 2011, dated 2014).

Data set [1] in a line: stability upon storage at conditions of high relative humidity. The format is physicochemical.
The nature of data set [2]: dynamic water vapor sorption/desorption (moisture sorption isotherm). Format: physicochemical. Conditions: for hygroscopicity (in words): comparison of moisture sorption isotherms, FIGS. 4 and 5; for water uptake: from about 3 to 90% relative humidity at about 25° C., w % = weight % of water in relation to total weight. As to the method: The water uptake of the crystalline forms of Linagliptin benzoate was determined by dynamic water vapor sorption/desorption. Therefore both forms were conditioned at about 28% relative humidity (RH) and the initial water content was determined by Karl-Fischer-titration. Then a moisture sorption experiment was performed with an SPSx-1μ moisture sorption analyzer (Projekt Messtechnik, Ulm) by stepwise increasing the RH in the range of about 3% RH to about 90% RH within approximately 2.5 days at 25±0.1° C.

Regarding `CC#CCn1c(N2CCC[C@@H](N)C2)nc2c1c(=O)n(Cc1nc(C)c3ccccc3n1)c(=O)n2C` [Linagliptin benzoate form II, Linagliptin benzoate], the stability upon storage entry in data set [1] is “more stable than form I”. In addition, in data set [2], the “hygroscopicity (in words)” value is reported as “significantly less hygroscopic than crystalline Linagliptin benzoate of WO2010/072776 A1” and the water uptake entry was “about 2.0 w %”.

With `CC#CCn1c(N2CCC[C@@H](N)C2)nc2c1c(=O)n(Cc1nc(C)c3ccccc3n1)c(=O)n2C` [crystalline Linagliptin benzoate of WO2010/072776 A1] [reference compound], the “hygroscopicity (in words)” value in data set [2] (listed as crystalline form of Linagliptin benzoate of WO2010/072776 A1) is on record as “quite hygroscopic”. In data set [2], the water uptake entry was “about 9.5 w %”.
